# Patent publication US5292733A, “Cephalosporin compounds” (Lucky Limited, priority 1991, dated 1994)
# Assays:
# Assay in all cases: Antibacterial activity MIC, two-fold agar dilution
# Type in all cases: cell-based
# [1] = test system: Staphylococcus aureus ATCC 6538p; conditions: Staphylococcus aureus ATCC 6538p, Muller-Hinton agar, 37° C., 20 hours; for MIC: ATCC6538P, read-out: Antibacterial Activity MIC
# Method in brief: (§1)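 The minimum inhibitory concentration was measured on Muller-Hinton agar plates holding halving compound concentrations. Plates received a 2 μl spot of strain suspension at 10^7 CFU per ml and were incubated for 20 hours at 37° C.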
# [2] = test system: Escherichia coli ATCC 10536; conditions: 37° C., 20 hours; for MIC: ATCC10536, Muller-Hinton agar; for Antibacterial Activity MIC: Muller-Hinton agar
# Method in brief: as §1
# [3] = test system: Pseudomonas aeruginosa ATCC 10145; conditions: Pseudomonas aeruginosa ATCC 10145, Muller-Hinton agar, 37° C., 20 hours; for MIC: ATCC10145, read-out: Antibacterial Activity MIC
# Method in brief: as §1
# [4] = test system: Enterobacter cloacae ATCC 27508; conditions: Enterobacter cloacae ATCC 27508, Muller-Hinton agar, 37° C., 20 hours; for MIC: ATCC27508, read-out: Antibacterial Activity MIC
# Method in brief: as §1
# [5] = test system: Citrobacter freundii ATCC 8090; conditions: Citrobacter freundii ATCC 8090, Muller-Hinton agar, 37° C., 20 hours; for MIC: ATCC8090, read-out: Antibacterial Activity MIC
# Method in brief: as §1
# [6] = test system: Bacillus megaterium ATCC 9885; conditions: Bacillus megaterium ATCC 9885, Muller-Hinton agar, 37° C., 20 hours; for MIC: Priestia megaterium, ATCC9885, read-out: Antibacterial Activity MIC
# Method in brief: as §1
# [7] = test system: Morganella morganii ATCC 8076h; conditions: Muller-Hinton agar, 37° C., 20 hours; for MIC: ATCC8076H
# Method in brief: as §1
# [8] = test system: Proteus vulgaris ATCC 6059; conditions: Proteus vulgaris ATCC 6059, Muller-Hinton agar, 37° C., 20 hours; for MIC: ATCC6059, read-out: Antibacterial Activity MIC
# Method in brief: as §1
# [9] = test system: Shigella flexneri ATCC 11836; conditions: 37° C., 20 hours; for MIC: ATCC11836, Muller-Hinton agar; for Antibacterial Activity MIC: Muller-Hinton agar
# Method in brief: as §1
# [10] = test system: Klebsiella pneumoniae ATCC 10031; conditions: Klebsiella pneumoniae ATCC 10031, Muller-Hinton agar, 37° C., 20 hours; for MIC: ATCC10031, read-out: Antibacterial Activity MIC
# Method in brief: as §1
# [11] = test system: Serratia marcescens ATCC 27117; conditions: Serratia marcescens ATCC 27117, Muller-Hinton agar, 37° C., 20 hours; for MIC: ATCC27117, read-out: Antibacterial Activity MIC
# Method in brief: as §1
# [12] = test system: Shigella sonnei ATCC 11060; conditions: 37° C., 20 hours; for MIC: ATCC11060, Muller-Hinton agar; for Antibacterial Activity MIC: Muller-Hinton agar
# Method in brief: as §1
# [13] = test system: Acinetobacter calcoaceticus ATCC 15473; conditions: Acinetobacter calcoaceticus ATCC 15473, Muller-Hinton agar, 37° C., 20 hours; for MIC: ATCC15473, read-out: Antibacterial Activity MIC
# Method in brief: as §1
# [14] = test system: Salmonella typhimurium ATCC 14028; conditions: Salmonella typhimurium ATCC 14028, Muller-Hinton agar, 37° C., 20 hours; for MIC: Salmonella enterica, read-out: Antibacterial Activity MIC
# Method in brief: as §1
# [15] = test system: Enterobacter aerogenes ATCC 29751; conditions: Enterobacter aerogenes ATCC 29751, Muller-Hinton agar, 37° C., 20 hours; for MIC: Klebsiella aerogenes, ATCC29751, read-out: Antibacterial Activity MIC
# Method in brief: as §1
# [16] = test system: Bacillus cereus ATCC 11778; conditions: Bacillus cereus ATCC 11778, Muller-Hinton agar, 37° C., 20 hours; for MIC: ATCC11778, read-out: Antibacterial Activity MIC
# Method in brief: as §1
# [17] = test system: Staphylococcus aureus ATCC 10537; conditions: Staphylococcus aureus ATCC 10537, Muller-Hinton agar, 37° C., 20 hours; for MIC: ATCC10537, read-out: Antibacterial Activity MIC
# Method in brief: as §1
# [18] = test system: Streptococcus faecalis ATCC 29212; conditions: Streptococcus faecalis ATCC 29212, Muller-Hinton agar, 37° C., 20 hours; for MIC: Enterococcus faecalis, ATCC29212, read-out: Antibacterial Activity MIC
# Method in brief: as §1
# [19] = test system: Proteus mirabilis ATCC 25933; conditions: Proteus mirabilis ATCC 25933, Muller-Hinton agar, 37° C., 20 hours; for MIC: ATCC25933, read-out: Antibacterial Activity MIC
# Method in brief: as §1
# [20] = test system: Escherichia coli ATCC 25922; conditions: 37° C., 20 hours; for MIC: ATCC25922, Muller-Hinton agar; for Antibacterial Activity MIC: Muller-Hinton agar
# Method in brief: as §1
# [21] = test system: Providencia rettgeri ATCC 9250; conditions: 37° C., 20 hours; for MIC: ATCC9250, Muller-Hinton agar; for Antibacterial Activity MIC: Muller-Hinton agar
# Method in brief: as §1
# [22] = test system: Micrococcus luteus ATCC 9341; conditions: Micrococcus luteus ATCC 9341, Muller-Hinton agar, 37° C., 20 hours; for MIC: ATCC9341, read-out: Antibacterial Activity MIC
# Method in brief: as §1
# [23] = test system: Pseudomonas aeruginosa ATCC 25619; conditions: Pseudomonas aeruginosa ATCC 25619, Muller-Hinton agar, 37° C., 20 hours; for MIC: ATCC25619, read-out: Antibacterial Activity MIC
# Method in brief: as §1
# [24] = test system: Pseudomonas aeruginosa ATCC 27853; conditions: Pseudomonas aeruginosa ATCC 27853, Muller-Hinton agar, 37° C., 20 hours; for MIC: ATCC27853, read-out: Antibacterial Activity MIC
# Method in brief: as §1
# [25] = test system: Staphylococcus epidermidis ATCC 12228; conditions: Staphylococcus epidermidis ATCC 12228, Muller-Hinton agar, 37° C., 20 hours; for MIC: ATCC12228, read-out: Antibacterial Activity MIC
# Method in brief: as §1
compound,measurement,setting,value
"CC[n+]1c(N)nc(N)nc1SCC1=C(C(=O)[O-])N2C(=O)C(NC(=O)/C(=N\OC(C)(C)C(=O)O)c3csc(N)n3)[C@H]2SC1 (stereo partly shown) [Compound I-24, 7-[(Z)-2-(2-aminothiazol-4-yl) -2-(2-carboxyprop-2-oxyimino)acetamido]-3-(4,6-diamino-1-ethyl-1,3,5-triazinium-2-yl)thiomethyl-3-cephem-4-carboxylate]",MIC,[1],4 µg/mL
same,MIC,[2],0.13 µg/mL
same,MIC,[3],2 µg/mL
same,MIC,[4],0.031 µg/mL
same,MIC,[5],0.13 µg/mL
same,MIC,[6],0.5 µg/mL
same,MIC,[7],≤ 8 ng/mL
same,MIC,[8],0.063 µg/mL
same,MIC,[9],0.063 µg/mL
same,MIC,[10],0.063 µg/mL
same,MIC,[11],0.13 µg/mL
same,MIC,[12],0.063 µg/mL
same,MIC,[13],4 µg/mL
same,MIC,[14],0.13 µg/mL
same,MIC,[15],2 µg/mL
same,MIC,[16],> 128 µg/mL
same,MIC,[17],2 µg/mL
same,MIC,[18],> 128 µg/mL
same,MIC,[19],0.063 µg/mL
same,MIC,[20],0.063 µg/mL
same,MIC,[21],≤ 8 ng/mL
same,MIC,[22],1 µg/mL
same,MIC,[23],1 µg/mL
same,MIC,[24],1 µg/mL
same,MIC,[25],2 µg/mL
"CC(C)(O/N=C(\C(=O)NC1C(=O)N2C(C(=O)[O-])=C(CSc3nc(N)nc(N)[n+]3-c3ccccc3)CS[C@H]12)c1csc(N)n1)C(=O)O (stereo partly shown) [Compound I-25, 7-[(Z)-2-(2-aminothiazol-4-yl) -2-(2-carboxyprop-2-oxyimino)acetamido]-3-(4,6-diamino-1-phenyl-1,3,5-triazinium-2-yl)thiomethyl-3-cephem-4-carboxylate]",MIC,[1],4 µg/mL
same,MIC,[2],0.13 µg/mL
same,MIC,[3],4 µg/mL
same,MIC,[4],0.13 µg/mL
same,MIC,[5],0.5 µg/mL
same,MIC,[6],0.5 µg/mL
same,MIC,[7],≤ 8 ng/mL
same,MIC,[8],0.13 µg/mL
same,MIC,[9],0.13 µg/mL
same,MIC,[10],0.25 µg/mL
same,MIC,[11],0.13 µg/mL
same,MIC,[12],0.25 µg/mL
same,MIC,[13],16 µg/mL
same,MIC,[14],0.25 µg/mL
same,MIC,[15],2 µg/mL
same,MIC,[16],128 µg/mL
same,MIC,[17],4 µg/mL
same,MIC,[18],> 128 µg/mL
same,MIC,[19],0.13 µg/mL
same,MIC,[20],0.25 µg/mL
same,MIC,[21],≤ 8 ng/mL
same,MIC,[22],0.5 µg/mL
same,MIC,[23],1 µg/mL
same,MIC,[24],2 µg/mL
same,MIC,[25],4 µg/mL
"(6R,7R)-7-[(Z)-2-(2-aminothiazol-4-yl)-2-(2-propyn-1-oxyimino)acetamido]-3-(2,6-diamino-3-methylpyrimidinium-4-yl)thiomethyl-3-cephem-4-carboxylate [Compound I-9]",Antibacterial Activity MIC,[1],0.25 µg/mL
same,Antibacterial Activity MIC,[2],0.016 µg/mL
same,Antibacterial Activity MIC,[3],16 µg/mL
same,Antibacterial Activity MIC,[4],0.13 µg/mL
same,Antibacterial Activity MIC,[5],0.13 µg/mL
same,Antibacterial Activity MIC,[6],0.13 µg/mL
same,Antibacterial Activity MIC,[7],<= 0.008 μg/ml
same,Antibacterial Activity MIC,[8],0.016 µg/mL
same,Antibacterial Activity MIC,[9],0.13 µg/mL
same,Antibacterial Activity MIC,[10],0.063 µg/mL
same,Antibacterial Activity MIC,[11],0.5 µg/mL
same,Antibacterial Activity MIC,[12],0.13 µg/mL
same,Antibacterial Activity MIC,[13],2 µg/mL
same,Antibacterial Activity MIC,[14],0.5 µg/mL
same,Antibacterial Activity MIC,[15],0.5 µg/mL
same,Antibacterial Activity MIC,[16],64 µg/mL
same,Antibacterial Activity MIC,[17],0.25 µg/mL
same,Antibacterial Activity MIC,[18],> 128 µg/mL
same,Antibacterial Activity MIC,[19],0.016 µg/mL
same,Antibacterial Activity MIC,[20],0.063 µg/mL
same,Antibacterial Activity MIC,[21],<= 0.008 μg/ml
same,Antibacterial Activity MIC,[22],0.063 µg/mL
same,Antibacterial Activity MIC,[23],2 µg/mL
same,Antibacterial Activity MIC,[24],8 µg/mL
same,Antibacterial Activity MIC,[25],0.5 µg/mL
"(6R,7R)-7-[(Z)-2-(5-aminothiazol-4-yl)-2-(2-propyn-1-oxyimino)acetamido]-3-(2,6-diamino-1-methylpyrimidinium-4-yl)thiomethyl-3-cephem-4-carboxylate [Compound I-16]",Antibacterial Activity MIC,[1],0.5 µg/mL
same,Antibacterial Activity MIC,[2],0.5 µg/mL
same,Antibacterial Activity MIC,[3],8 µg/mL
same,Antibacterial Activity MIC,[4],0.063 µg/mL
same,Antibacterial Activity MIC,[5],0.25 µg/mL
same,Antibacterial Activity MIC,[6],0.25 µg/mL
same,Antibacterial Activity MIC,[7],0.016 µg/mL
same,Antibacterial Activity MIC,[8],1 µg/mL
same,Antibacterial Activity MIC,[9],0.25 µg/mL
same,Antibacterial Activity MIC,[10],0.016 µg/mL
same,Antibacterial Activity MIC,[11],2 µg/mL
same,Antibacterial Activity MIC,[12],0.5 µg/mL
same,Antibacterial Activity MIC,[13],8 µg/mL
same,Antibacterial Activity MIC,[14],1 µg/mL
same,Antibacterial Activity MIC,[15],1 µg/mL
same,Antibacterial Activity MIC,[16],64 µg/mL
same,Antibacterial Activity MIC,[17],0.5 µg/mL
same,Antibacterial Activity MIC,[18],32 µg/mL
same,Antibacterial Activity MIC,[19],1 µg/mL
same,Antibacterial Activity MIC,[20],0.5 µg/mL
same,Antibacterial Activity MIC,[21],<= 0.008 μg/ml
same,Antibacterial Activity MIC,[22],0.031 µg/mL
same,Antibacterial Activity MIC,[23],2 µg/mL
same,Antibacterial Activity MIC,[24],4 µg/mL
same,Antibacterial Activity MIC,[25],0.25 µg/mL
